{"source": "patent US20050226919A1", "about": "“Device for transdermal administration for the treatment of urinary tract disorders” (priority 2001, published 2005)", "key": {"[1]": {"test": "Skin permeation across human skin (in vitro penetration assay)", "assay_type": "in vitro ADME", "protocol": "(§1) The skin permeation of KMD 3213 was also evaluated on hairless mouse skin and human skin. Human skin penetration assays were performed as described by Tanojo et al. in Journal of Controlled Release 45 (1997), 41-47. The concentration of KMD 3213 was measured by HPLC with a Symetry Shield RP-8, 3.9*150 mm 5 μm column; T=35° C.; eluent: water/acetonitrile/trifluoracetic acid 800/200/1 (v/v/v); dectetion UV at 225 nm; flux rate 1.5 ml/min; injection volume: 100 μl at 23° C."}, "[2]": {"test": "Skin permeation across hairless mouse skin (horizontal diffusion cell)", "assay_type": "in vitro ADME", "protocol": "as §1\nThe flux measurements on hairless mouse skin were conducted using a TTS area of 2.55 cm^2 fixed on mouse abdominal and back skin in a horizontal diffusion cell. Immediately thereafter the acceptor chamber of the cell was filled with phosphate buffer solution (0.066 molar) previously adjusted to 32±0.5° C. and pH 6.2, in an air-bubble free state, and the release medium thermostatted to 32±0.5° C. At the time of sampling (after 3, 6, 24 and 48 hours) the release medium is exchanged with fresh medium thermostatted at 32±0.5° C. KMD 3213 was measured with HPLC as explained above."}, "[3]": {"molecular_target": "T1, α1a-receptor (Homo sapiens, UniProt P35348)", "T1 sequence (P35348 1-466)": "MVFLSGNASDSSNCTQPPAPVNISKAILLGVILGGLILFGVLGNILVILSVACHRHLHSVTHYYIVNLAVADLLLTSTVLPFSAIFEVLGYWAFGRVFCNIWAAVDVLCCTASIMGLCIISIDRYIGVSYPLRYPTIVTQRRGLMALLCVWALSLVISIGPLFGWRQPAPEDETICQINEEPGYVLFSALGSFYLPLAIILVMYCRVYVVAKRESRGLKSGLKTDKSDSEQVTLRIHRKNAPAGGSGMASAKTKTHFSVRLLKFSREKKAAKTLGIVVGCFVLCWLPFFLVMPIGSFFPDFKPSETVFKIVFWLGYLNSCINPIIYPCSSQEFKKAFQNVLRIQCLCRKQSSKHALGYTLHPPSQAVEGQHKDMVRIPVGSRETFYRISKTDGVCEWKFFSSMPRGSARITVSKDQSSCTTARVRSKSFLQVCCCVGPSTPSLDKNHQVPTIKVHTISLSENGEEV", "settings": "Murata et al., Br. J. Pharmacol. (1999) 127, 19-26; cited from earlier work"}}, "data": [{"smiles": "C[C@H](Cc1cc2c(c(C(N)=O)c1)N(CCCO)CC2)NCCOc1ccccc1OCC(F)(F)F", "note": "[KMD 3213, (-)-(R)-1-(3-hydroxypropyl)-5-[2-[[2-[2-(2,2,2-trifluoroethoxy)phenoxy]ethyl]amino]propyl]indoline-7-carboxamide]", "values": [{"measurement": "steady state flux rate on human skin", "setting": "[1]", "value": 2.9, "unit": "mg/20 cm^2 per day"}, {"measurement": "steady state skin permeation rate on hairless mouse skin", "setting": "[2]; hairless mouse skin, TTS area 2.55 cm^2, phosphate buffer pH 6.2, 32°C", "value": "approximately 2.7 mg/20 cm^2 per day"}, {"measurement": "steady state flux rate through mouse skin", "setting": "[2]; mouse skin, from the devices of the invention", "value": 2.7, "unit": "mg/day"}, {"measurement": "α-adrenoceptor subtype specificity", "setting": "[3]", "value": "binding specifically to the α1a-receptor"}]}]}
